Patent US20260337153A1, “IONIZABLE AMINE LIPIDS” (Intellia Therapeutics, Inc., priority 2023, published 2026)

Test system: rat TTR gene
Experiment: In vivo editing of TTR in rat liver after LNP delivery (NGS, % editing)
Parameters: species or system rat (Sprague-Dawley)
Settings: for Mean % editing in rat liver: NGS, dose 0.03 mpk, LNP with G000534 sgRNA and Cas9 mRNA 1:2 w/w, 3% C13 Ether (Compound 53: 3% PEG2K-DMG), N=5 (Compound 33: N=4)
Procedure: LNPs were prepared using various amine lipids in a 4-component lipid system consisting of an ionizable lipid (e.g., an amine lipid), DSPC, cholesterol and a PEG lipid (e.g., PEG2K-DMG, C13 Ether, C14 Ether). In assays for percent liver editing in rats, Cas9 mRNA and chemically modified sgRNA targeting a rat sequence were formulated in LNPs, at either a 1:1 w/w ratio or a 1:2 w/w sgRNA:Cas9 mRNA ratio.
The lipid components were dissolved in 100% ethanol with the lipid component molar ratios described below. The chemically modified sgRNA and Cas9 mRNA were combined and dissolved in 25 mM citrate, 100 mM NaCl, pH 5.0, resulting in a concentration of total RNA cargo of approximately 0.45 mg/mL. The LNPs were formulated with an N:P ratio of about 6, with the ratio of chemically modified sgRNA:Cas9 mRNA at either a 1:1 or 1:2 w/w ratio as described below.
The LNPs were formed by an impinging jet mixing of the lipid in ethanol with two volumes of RNA solution and one volume of water. First, the lipid in ethanol is mixed through a mixing cross with the two volumes of RNA solution. Then, a fourth stream of water is mixed with the outlet stream of the cross through an inline tee. (See, e.g., WO2016010840, FIG. 2). The LNPs were held for 1 hour at room temperature, and further diluted with water (approximately 1:1 v/v). Diluted LNPs were buffer exchanged into 50 mM Tris, 45 mM NaCl, 5% (w/v) sucrose, pH 7.5 (TSS) and concentrated as needed by methods known in the art. The resulting mixture was then filtered using a 0.2 μm sterile filter. The final LNP was stored at 4° C. or −80° C. until further use.
Sprague-Dawley female rats, ranging from 6-10 weeks of age were used in each study. Animals were weighed and dosed based on individual body weight measured the morning of dosing. LNPs were dosed via the lateral tail vein in a volume of 2 mL per kilogram of animal body weight. The animals were periodically observed for adverse effects for at least 24 hours post dose.
For studies measuring in vivo editing in liver, Sprague-Dawley female rats were dosed at 0.1 mpk or 0.03 mpk, unless otherwise noted. Animals were euthanized at 6 or 7 days by carbon dioxide asphyxiation and a heart clip or by ex sanguination via cardiac puncture under isoflourane anesthesia. Blood was collected into serum separator tubes. Liver tissue was collected. Genomic DNA was isolated from the liver tissue for editing measurement by Next-Generation Sequencing (NGS).
In brief, to quantitatively determine the efficiency of editing at the target location in the genome, genomic DNA was isolated and deep sequencing was utilized to identify the presence of insertions and deletions introduced by gene editing.
PCR primers were designed around the target site (e.g., TTR), and the genomic area of interest was amplified. Additional PCR was performed according to the manufacturer's protocols (Illumina) to add the necessary chemistry for sequencing. The amplicons were sequenced on an Illumina MiSeq instrument. The reads were aligned to the […] after eliminating those having low quality scores. The resulting files containing the reads were mapped to the reference genome (BAM files), where reads that overlapped the target region of interest were selected and the number of wild type reads versus the number of reads which contain an insertion, substitution, or deletion was calculated.
The editing percentage (e.g., the “indel efficiency” or “percent indels” or “% editing” or “% indel”) can be defined as the total number of sequence reads with insertions or deletions over the total number of sequence reads, including wild type.
In vivo editing efficiency for materials delivered with formulations including various amine lipid (or ionizable lipid) compounds in Experiments 1 through 14 as described in Tables 3 and 4 was assessed. Editing was measured using G000534 (SEQ ID NO: 5) which targets the rat TTR gene. […]

[1] = Experiment 14, 0.03 mpk, LNP with C13 Ether
[2] = Experiment 7, 0.1 mpk, LNP with PEG2K-DMG
[3] = Experiment 3, 0.1 mpk, LNP with PEG2K-DMG
[4] = Experiment 4, 0.1 mpk, LNP with PEG2K-DMG
[5] = Experiment 9, 0.1 mpk, LNP with PEG2K-DMG
[6] = Experiment 12, 0.04 mpk, LNP with PEG2K-DMG
[7] = Experiment 10, 0.1 mpk, LNP with PEG2K-DMG

With `CCCCCCCCC(CCCCCCCC)C(=O)OCC(COC(=O)NCCN(CC)CC)COC(=O)C(CCCCCCCC)CCCCCCCC` [Compound 40, 2-((((2-(diethylamino)ethyl)carbamoyl)oxy)methyl)propane-1,3-diyl bis(2-octyldecanoate)] the Mean % editing [1] was 1.0%.

Work on `CCCCCCCCOC(CCC(=O)OCC(COC(=O)NCCN(CC)CC)COC(=O)C(CCCC)CCCCCC)OCCCCCCCC` (centres unmarked) [Compound 48, 3-((4,4-bis(octyloxy)butanoyl)oxy)-2-((((2-(diethylamino)ethyl)carbamoyl)oxy)methyl)propyl 2-butyloctanoate] yielded a Mean % editing [2] of 55.0%.

`CCCCC/C=C\C/C=C\CCCCCCCC(=O)OCC(CCCCCCCCC(=O)OCC(CCCC)CCCCCC)COC(=O)OCCCN(CC)CC` (centres unmarked) [Compound 7, 11-((2-butyloctyl)oxy)-2-((((3-(diethylamino)propoxy)carbonyl)oxy)methyl)-11-oxoundecyl (9Z,12Z)-octadeca-9,12-dienoate] showed a Mean % editing [3] of 30.0%.

Compound `CCCCC/C=C\C/C=C\CCCCCCCC(=O)OCC(CCCCCCCCC(=O)OC(CCCCCCCC)CCCCCCCC)COC(=O)OCCCN(CC)CC` (centres unmarked) [Compound 9, 2-((((3-(diethylamino)propoxy)carbonyl)oxy)methyl)-11-(heptadecan-9-yloxy)-11-oxoundecyl (9Z,12Z)-octadeca-9,12-dienoate] has a Mean % editing [3] of 5.3%, a Mean % editing [4] of 9.6% and a Mean % editing [5] of 4.3%.

Work on `CCCCCCCCC(CCCCCCCC)OC(=O)CCCC(=O)OCC(COC(=O)CCCC(=O)OC(CCCCCCCC)CCCCCCCC)COC(=O)NCCN1CCCCC1` [Compound 28, di(heptadecan-9-yl) O,O′-(2-((((2-(piperidin-1-yl)ethyl)carbamoyl)oxy)methyl)propane-1,3-diyl) diglutarate] yielded a Mean % editing [6] of 11.0%.

In the case of `CCCCCCCCCCCC(=O)OCC(COC(=O)CCC(OCCCCCCCC)OCCCCCCCC)COC(=O)OCCCN(CC)CC` (centres unmarked) [Compound 41, 3-((4,4-bis(octyloxy)butanoyl)oxy)-2-((((3-(diethylamino)propoxy)carbonyl)oxy)methyl)propyl Dodecanoate], the Mean % editing [2] is reported as 5.8%.

In the case of `CCCCC/C=C\C/C=C\CCCCCCCC(=O)OCC(CCCCC(=O)OC(CCCC)CCCC)COC(=O)NCCN(CC)CC` (centres unmarked) [Compound 12, 2-((((2-(diethylamino)ethyl)carbamoyl)oxy)methyl)-7-(nonan-5-yloxy)-7-oxoheptyl (9Z,12Z)-octadeca-9,12-dienoate], the Mean % editing [4] is reported as 11.6%.

Compound `CCCCCCCCC(CCCCCCCC)OC(=O)CCCC(=O)OCC(COC(=O)CCCC(=O)OC(CCCCCCCC)CCCCCCCC)COC(=O)OCCCN(C)CC` [Compound 30, O,O′-(2-((((3-(ethyl(methyl)amino)propoxy)carbonyl)oxy)methyl)propane-1,3-diyl) di(heptadecan-9-yl) diglutarate] has a Mean % editing [6] of 12.6%.

With `CCCCC/C=C\C/C=C\CCCCCCCC(=O)OCC(CCCCCCCCC(=O)OC(CCCCCCCC)CCCCCCCC)COC(=O)OCCCN(C)CC` (centres unmarked) [Compound 11, 2-((((3-(ethyl(methyl)amino)propoxy)carbonyl)oxy)methyl)-11-(heptadecan-9-yloxy)-11-oxoundecyl (9Z,12Z)-octadeca-9,12-dienoate] the Mean % editing [4] was 14.0%.

In the case of `CCCCC/C=C\C/C=C\CCCCCCCC(=O)OCC(COC(=O)CCCC(=O)OC(CCCCCCCC)CCCCCCCC)COC(=O)N(C)CCN(CC)CC` (centres unmarked) [Compound 49, 3-(((2-(diethylamino)ethyl)(methyl)carbamoyl)oxy)-2-((((9Z,12Z)-octadeca-9,12-dienoyl)oxy)methyl)propyl heptadecan-9-yl Glutarate], the Mean % editing [7] is reported as 47.1%.

For `CCCCCCCCC(CCCCCCCC)OC(=O)CCCCCC(=O)OCC(COC(=O)CCCCCC(=O)OC(CCCCCCCC)CCCCCCCC)COC(=O)OCCCN1CCCC1` [Compound 64, 7,7′-di(heptadecan-9-yl) O′1,O1-(2-((((3-(pyrrolidin-1-yl)propoxy)carbonyl)oxy)methyl)propane-1,3-diyl) di(heptanedioate)], the “Mean % editing in rat liver” value was 2.0%.

With `CCCCCCCCC(CCCCCCCC)OC(=O)CCCC(=O)OCC(COC(=O)CCCC(=O)OC(CCCCCCCC)CCCCCCCC)COC(=O)CCCN(C)C` [Compound 34, O,O′-(2-(((4-(dimethylamino)butanoyl)oxy)methyl)propane-1,3-diyl) di(heptadecan-9-yl) diglutarate] the Mean % editing [1] was 14.9%.

In the case of `CCCCC/C=C\C/C=C\CCCCCCCC(=O)OCC(CCCCC(=O)OC(CCCCCCCC)CCCCCCCC)COC(=O)OCCCN(CC)CC` (centres unmarked) [Compound 15, 2-((((3-(diethylamino)propoxy)carbonyl)oxy)methyl)-7-(heptadecan-9-yloxy)-7-oxoheptyl (9Z,12Z)-octadeca-9,12-dienoate], the Mean % editing [5] is reported as 15.1%.

Work on `CCCCCCCCOC(CCC(=O)OCC(COC(=O)CCC(OCCCCCCCC)OCCCCCCCC)COC(=O)OCCCN(CC)CC)OCCCCCCCC` [Compound 1, 2-((((3-(diethylamino)propoxy)carbonyl)oxy)methyl)propane-1,3-diyl bis(4,4-bis(octyloxy)butanoate)] yielded a Mean % editing [3] of 52.4%.

With `CCCCCCCCC(CCCCCCCC)CC(=O)OCCC(=O)OCC(COC(=O)CCCC(=O)OC(CCCCCCCC)CCCCCCCC)COC(=O)NCCN(CC)CC` (centres unmarked) [Compound 63, 3-(((2-(diethylamino)ethyl)carbamoyl)oxy)-2-(((3-((3-octylundecanoyl)oxy)propanoyl)oxy)methyl)propyl heptadecan-9-yl Glutarate] the Mean % editing (Table 8, 0.03 mpk, LNP with C13 Ether) was 0.1%.

For `CCCCCCCCC(CCCCCCCC)OC(=O)CCCCCCC(=O)OCC(CC)(COC(=O)CCCCCCC(=O)OC(CCCCCCCC)CCCCCCCC)COC(=O)NCCN(CC)CC` [Compound 66, O′1,O1-(2-((((2-(diethylamino)ethyl)carbamoyl)oxy)methyl)-2-ethylpropane-1,3-diyl) 8,8′-di(heptadecan-9-yl) di(octanedioate)], the “Mean % editing in rat liver” value was 9.5%.

With `CCCCCCCCC(CCCCCCCC)OC(=O)CCCCCCC(=O)OCC(CC)(COC(=O)CCCCCCC(=O)OC(CCCCCCCC)CCCCCCCC)COC(=O)OCCCN1CCCC1` [Compound 67, O′1,O1-(2-ethyl-2-((((3-(pyrrolidin-1-yl)propoxy)carbonyl)oxy)methyl)propane-1,3-diyl) 8,8′-di(heptadecan-9-yl) di(octanedioate)] the “Mean % editing in rat liver” value was 1.6%.

In the case of `CCCCC/C=C\C/C=C\CCCCCCCC(=O)OCC(CCCCC(=O)OC(CCCC)CCCC)COC(=O)OCCCN(C)CC` (centres unmarked) [Compound 13, 2-((((3-(ethyl(methyl)amino)propoxy)carbonyl)oxy)methyl)-7-(nonan-5-yloxy)-7-oxoheptyl (9Z,12Z)-octadeca-9,12-dienoate], the Mean % editing [4] is reported as 20.9%.

With `CCCCCCCCC(CCCCCCCC)OC(=O)CCCC(=O)OCC(COC(=O)CCCC(=O)OC(CCCCCCCC)CCCCCCCC)COC(=O)OCCCN1CCCC1` [Compound 33, di(heptadecan-9-yl) O,O′-(2-((((3-(pyrrolidin-1-yl)propoxy)carbonyl)oxy)methyl)propane-1,3-diyl) diglutarate] the Mean % editing [6] was 20.0% and the “Mean % editing in rat liver” value was 12.2%.

`CCCCC/C=C\C/C=C\CCCCCCCC(=O)OCC(COC(=O)CCCC(=O)OC(CCCCCCCC)CCCCCCCC)COC(=O)NCCN1CCCCCC1` (centres unmarked) [Compound 50, 3-(((2-(azepan-1-yl)ethyl)carbamoyl)oxy)-2-((((9Z,12Z)-octadeca-9,12-dienoyl)oxy)methyl)propyl heptadecan-9-yl Glutarate] was tested, and the Mean % editing [7] was 53.1%.
